Data from ChEMBL document CHEMBL1124211, “Synthesis and in vitro activity of various derivatives of a novel thromboxane receptor antagonist, (+/-)-(5Z)-7-[3-endo-[(phenylsulfonyl)amino]bicyclo[2.2.1] hept-2-exo-yl]heptenoic acid” (J Med Chem, 1988).

What was measured:
Rattus norvegicus [1] = species: Rattus norvegicus; experiment: Inhibition of rat washed platelet aggregation induced by 4 ug/mL of collagen; type: functional
Oryctolagus cuniculus = species: Oryctolagus cuniculus; experiment: Inhibition of rabbit platelet rich plasma aggregation induced by 500 uM of arachidonic acid; type: functional
Rattus norvegicus [2] = species: Rattus norvegicus; experiment: Inhibitory activity against rat thoracic aorta contraction induced by 30 nM U-46619; type: functional
Homo sapiens [3] = species: Homo sapiens; experiment: Effect on the synthesis of Thromboxane A2 at dose of 20 uM; type: functional, organism-based
Homo sapiens [4] = species: Homo sapiens; experiment: The synthesis of cyclooxygenase or lipoxygenase derived products (HHT and HETE) in human washed platelets at dose of 20 uM; type: functional, organism-based
Homo sapiens [5] = species: Homo sapiens; experiment: Effect on the synthesis of metabolites of arachidonic acid in human platelets; type: functional
Homo sapiens [6] = species: Homo sapiens; experiment: Effect on the synthesis of metabolites of arachidonic acid in human platelets at a dose of 1 uM; type: functional
Homo sapiens [7] = species: Homo sapiens; experiment: Effect on cyclooxygenase or lipoxygenase derived products (HHT and HETE) in human washed platelets at a dose of 10 uM as percent of radioactivity recovered; type: functional
Homo sapiens [8] = species: Homo sapiens; experiment: Effect on the synthesis of metabolites of arachidonic acid in human platelets at dose of 10 uM expressed as percent of radioactivity recovered; type: functional
[9] = molecular target: T1, Thromboxane-A synthase (Homo sapiens) (UniProt P24557); experiment: Inhibition of thromboxane A2 synthetase from human platelets by 10 uM expressed as percent of radioactivity recovered
T1 sequence (whole entry): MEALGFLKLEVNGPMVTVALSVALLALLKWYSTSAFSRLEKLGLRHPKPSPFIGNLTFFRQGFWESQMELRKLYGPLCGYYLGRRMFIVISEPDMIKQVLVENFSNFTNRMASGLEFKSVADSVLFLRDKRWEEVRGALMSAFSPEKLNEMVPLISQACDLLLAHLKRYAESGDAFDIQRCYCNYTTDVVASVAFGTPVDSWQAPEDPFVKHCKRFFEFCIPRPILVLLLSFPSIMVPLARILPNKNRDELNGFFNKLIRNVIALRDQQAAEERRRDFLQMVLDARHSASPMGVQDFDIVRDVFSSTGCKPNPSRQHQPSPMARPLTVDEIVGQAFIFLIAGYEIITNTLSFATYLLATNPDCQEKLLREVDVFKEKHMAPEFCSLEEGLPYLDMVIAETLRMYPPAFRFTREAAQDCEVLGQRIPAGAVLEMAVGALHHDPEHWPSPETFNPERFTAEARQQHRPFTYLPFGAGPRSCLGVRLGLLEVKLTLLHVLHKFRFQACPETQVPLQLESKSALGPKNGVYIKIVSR

Homo sapiens [10] = species: Homo sapiens; experiment: Effect on cyclooxygenase or lipoxygenase derived products(HHT and HETE) in human washed platelets at dose of 1 uM expressed as percent of radioactivity recovered; type: functional
Homo sapiens [11] = species: Homo sapiens; experiment: Effect on the synthesis of Thromboxane A2; type: functional, organism-based
Homo sapiens [12] = species: Homo sapiens; experiment: The synthesis of cyclooxygenase or lipoxygenase derived products (HHT and HETE) in human washed platelets; type: functional
[13] = Rattus norvegicus, Thoracic aorta

SMILES	IC50 (Rattus norvegicus [1]; Rattus norvegicus)	IC50 (Oryctolagus cuniculus; Oryctolagus cuniculus, Plasma)	IC50 (Rattus norvegicus [2]; [13])	further results
O=C(O)CCC/C=C\C[C@@H]1[C@H](CNNC(=O)Nc2ccccc2)[C@H]2CC[C@H]1O2	0.003 µM	9 µM	0.0145 µM	–
CN(C)c1ccc(S(=O)(=O)N[C@H]2C3CC[C@H](C3)[C@@H]2C/C=C\CCCC(=O)O)cc1	0.052 µM	7.1 µM	–	–
COc1ccc2c(c1)c(CC(=O)O)c(C)n2C(=O)c1ccc(Cl)cc1	–	–	–	Recovery (Homo sapiens [3]): 0.34%; Recovery (Homo sapiens [4]): 15%; Recovery (Homo sapiens [5]): 28.4%
O=C(O)CCC/C=C\C[C@H]1[C@@H]2CCC(C2)[C@@H]1NS(=O)(=O)c1ccc(Cl)cc1	0.0029 µM	0.3 µM	–	–
O=C(O)CCC/C=C\C[C@H]1[C@@H]2CCC(C2)[C@@H]1NS(=O)(=O)c1ccc(O)cc1	0.004 µM	0.5 µM	–	–
Cc1cccc(S(=O)(=O)N[C@H]2C3CC[C@H](C3)[C@@H]2C/C=C\CCCC(=O)O)c1	0.0056 µM	1.7 µM	0.0032 µM	–
O=C(O)CCC/C=C\C[C@H]1[C@@H]2CCC(C2)[C@@H]1NC(=O)c1ccccc1	0.45 µM	> 800 µM	3.41 µM	–
CCCCCCS(=O)(=O)N[C@H]1C2CC[C@H](C2)[C@@H]1C/C=C\CCCC(=O)O	0.019 µM	13.3 µM	0.0172 µM	–
O=C(O)CCC/C=C\C[C@H]1[C@@H]2CCC(C2)[C@@H]1NS(=O)(=O)c1ccc(C(=O)O)cc1	> 1 µM	800 µM	–	–
O=C(O)CCC/C=C\C[C@H]1[C@@H]2CCC(C2)[C@@H]1NS(=O)(=O)CCc1ccccc1	0.0037 µM	8.2 µM	0.0034 µM	–
O=C(O)CCC/C=C\C[C@H]1[C@@H]2CCC(C2)[C@@H]1NS(=O)(=O)c1ccc(-c2ccccc2)cc1	0.006 µM	200 µM	0.0098 µM	–
O=C(O)CCC/C=C\C[C@H]1[C@@H]2CCC(C2)[C@@H]1NS(=O)(=O)c1ccccc1 (stereo in doubt; 14a) [listing 1 of 2 here]	–	–	–	Recovery (Homo sapiens [6]): 14.3%; Recovery (Homo sapiens [7]): 23.2%; Recovery (Homo sapiens [8]): 14.2%; Recovery [9]: 2.1%; Recovery (Homo sapiens [10]): 24%
O=C(O)CCC/C=C\C[C@H]1[C@@H]2CCC(C2)[C@@H]1NS(=O)(=O)c1cccc2ccccc12	0.0027 µM	1.1 µM	0.0027 µM	–
O=C(O)CCC/C=C\C[C@H]1[C@@H]2CCC(C2)[C@@H]1NS(=O)(=O)c1ccccc1 (single isomer, unassigned; (+))	–	–	–	IC50 (Rattus norvegicus [1]): 0.0018 µM; IC50 (Oryctolagus cuniculus): 0.6 µM; IC50 (Rattus norvegicus [2]): 0.00049 µM
O=C(O)CCC/C=C\C[C@H]1[C@@H]2CCC(C2)[C@@H]1NS(=O)(=O)CCCc1ccccc1	0.0109 µM	14 µM	0.0109 µM	–
COc1ccc(S(=O)(=O)N[C@H]2C3CC[C@H](C3)[C@@H]2C/C=C\CCCC(=O)O)cc1	0.0039 µM	1.7 µM	–	–
O=C(O)CCC/C=C\C[C@H]1[C@@H]2CCC(C2)[C@@H]1NS(=O)(=O)c1ccccc1 (single isomer, unassigned; (-))	–	–	–	IC50 (Rattus norvegicus [1]): 0.0134 µM; IC50 (Oryctolagus cuniculus): 7.4 µM; IC50 (Rattus norvegicus [2]): 0.0153 µM
O=C(O)c1ccc(OCCn2ccnc2)cc1	–	–	–	Recovery (Homo sapiens [5]): 11.8%; Recovery (Homo sapiens [11]): 0.74%; Recovery (Homo sapiens [12]): 19.3%
O=C(O)CCC/C=C\C[C@H]1[C@@H]2CCC(C2)[C@@H]1NS(=O)(=O)c1ccc([N+](=O)[O-])cc1	0.0089 µM	1.4 µM	–	–
O=C(O)CCC/C=C\C[C@H]1[C@@H]2CCC(C2)[C@@H]1NS(=O)(=O)c1ccc(F)cc1	0.0029 µM	0.6 µM	–	–
Cc1ccc(S(=O)(=O)N[C@H]2C3CC[C@H](C3)[C@@H]2C/C=C\CCCC(=O)O)cc1	0.0024 µM	0.5 µM	0.0007 µM	–
CCCCCc1ccc(S(=O)(=O)N[C@H]2C3CC[C@H](C3)[C@@H]2C/C=C\CCCC(=O)O)cc1	0.0145 µM	800 µM	–	–
CS(=O)(=O)N[C@H]1C2CC[C@H](C2)[C@@H]1C/C=C\CCCC(=O)O	0.37 µM	640 µM	1.58 µM	–
Cc1ccccc1S(=O)(=O)N[C@H]1C2CC[C@H](C2)[C@@H]1C/C=C\CCCC(=O)O	0.0043 µM	6.2 µM	0.0037 µM	–
O=C(O)CCC/C=C\C[C@H]1[C@@H]2CCC(C2)[C@@H]1NS(=O)(=O)c1ccccc1 (stereo in doubt; 14a) [listing 2 of 2 here]	–	–	–	IC50 (Rattus norvegicus [1]): 0.0029 µM; IC50 (Rattus norvegicus [2]): 0.0014 µM
O=C(O)CCC/C=C\C[C@H]1[C@@H]2CCC(C2)[C@@H]1NS(=O)(=O)Cc1ccccc1	0.026 µM	113 µM	0.111 µM	–
CCc1ccc(S(=O)(=O)N[C@H]2C3CC[C@H](C3)[C@@H]2C/C=C\CCCC(=O)O)cc1	0.0033 µM	4.6 µM	0.0015 µM	–
